Patent US12139471B2, “NLRP3 inflammasome inhibitors” (Novartis AG, priority 2019, dated 2024)
Where a name gives a salt, the structure may show the parent alone.

biological target: T1, NLRP3 inflammasome (Homo sapiens, UniProt Q96P20); experiment: IL-1β secretion assay (nigericin-activated, PMA-differentiated THP-1 cells, HTRF); format: cell-based; details: PMA-differentiated THP-1 cells; compound 1 hour, then 15 μM nigericin, 3 hours; IL-1β by HTRF; read-out: IL-1β IC50
T1 construct: host or cells: THP-1 cells, PMA-differentiated
Method: 10 μL supernatant was removed, and IL-1β levels were monitored using an HTRF assay (CisBio, #62IL1PEC) according to manufacturers' instructions. Viability and pyroptosis was monitored with the addition of PrestoBlue cell viability reagent (Life Technologies, #A13261) directly to the cell culture plate.
IC50 values were calculated from the plot of percentage of inhibition versus the inhibitor concentration by a logistics fit according to: y=A2+(A1−A2)/(1+(x/IC50)^p) where y is the %-inhibition at the inhibitor concentration, x. A1 is the lowest inhibition value, i.e. 0%, and A2 the maximum inhibition value, i.e. 100%. The exponent, p, is the Hill coefficient. The curve fitting was conducted with an internally developed software suite.
NLRP3-dependent IL-1β secretion was stimulated in PMA-differentiated THP-1 cells by the addition of nigericin, and cytokines were measured in the […] after 3 hours. As discussed above, activation of the NLRP3 inflammasome requires both an NF-kB-dependent priming step and the addition of a NLRP3 activator.

T1 sequence (Q96P20 whole entry): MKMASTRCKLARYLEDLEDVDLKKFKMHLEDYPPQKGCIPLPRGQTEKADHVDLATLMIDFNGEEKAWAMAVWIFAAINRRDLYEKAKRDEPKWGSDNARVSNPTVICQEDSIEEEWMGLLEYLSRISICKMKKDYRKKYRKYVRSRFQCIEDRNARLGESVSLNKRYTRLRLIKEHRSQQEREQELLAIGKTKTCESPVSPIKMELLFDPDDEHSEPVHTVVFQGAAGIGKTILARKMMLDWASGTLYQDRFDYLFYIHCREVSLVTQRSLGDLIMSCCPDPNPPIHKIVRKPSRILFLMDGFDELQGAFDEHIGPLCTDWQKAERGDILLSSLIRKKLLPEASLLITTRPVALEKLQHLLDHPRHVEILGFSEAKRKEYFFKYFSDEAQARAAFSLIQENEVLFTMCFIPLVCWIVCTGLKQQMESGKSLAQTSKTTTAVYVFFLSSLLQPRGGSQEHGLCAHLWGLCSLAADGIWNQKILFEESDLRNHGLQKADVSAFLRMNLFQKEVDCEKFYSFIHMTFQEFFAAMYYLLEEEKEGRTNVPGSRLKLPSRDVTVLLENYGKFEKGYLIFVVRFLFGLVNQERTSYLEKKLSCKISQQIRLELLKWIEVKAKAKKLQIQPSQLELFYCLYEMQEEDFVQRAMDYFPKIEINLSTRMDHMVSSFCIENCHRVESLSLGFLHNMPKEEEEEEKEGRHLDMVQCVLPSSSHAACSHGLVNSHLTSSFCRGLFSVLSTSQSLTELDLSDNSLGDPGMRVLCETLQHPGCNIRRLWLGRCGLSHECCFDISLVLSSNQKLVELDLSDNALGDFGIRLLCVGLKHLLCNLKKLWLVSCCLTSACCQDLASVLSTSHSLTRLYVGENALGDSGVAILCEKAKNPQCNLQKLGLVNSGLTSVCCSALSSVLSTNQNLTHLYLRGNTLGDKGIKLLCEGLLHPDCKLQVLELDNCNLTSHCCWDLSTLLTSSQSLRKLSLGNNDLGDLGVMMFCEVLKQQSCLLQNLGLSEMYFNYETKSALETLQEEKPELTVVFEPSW

Going from `Cc1cc(C(F)(F)F)cc(O)c1-c1ccc(N[C@H]2CCC[C@H](O)C2)nn1` [Ex 57, 2-(6-(((1S,3S)-3-Hydroxycyclohexyl)amino)pyridazin-3-yl)-3-methyl-5-(trifluoromethyl)phenol] to `Cc1cc(C(F)(F)F)cc(O)c1-c1ccc(N[C@@H]2CCC[C@@H](O)C2)nn1` [Ex 58, 2-(6-(((1R,3R)-3-Hydroxycyclohexyl)amino)pyridazin-3-yl)-3-methyl-5-(trifluoromethyl)phenol], the IC50 falls from 224 nM to 58.4 nM (3.8-fold).

Going from `Cc1cc(C(F)(F)F)cc(O)c1-c1ccc(N[C@@H]2CCCN(C)C2=O)nn1` [Ex 59, (R)-3-((6-(2-Hydroxy-6-methyl-4-(trifluoromethyl)phenyl)pyridazin-3-yl)amino)-1-methylpiperidin-2-one] to `Cc1cc(C(F)(F)F)cc(O)c1-c1ccc(N[C@@H]2CCC(=O)NC2)nn1` [Ex 61, (R)-5-((6-(2-Hydroxy-6-methyl-4-(trifluoromethyl)phenyl)pyridazin-3-yl)amino)piperidin-2-one], the IC50 rises from 35.9 nM to 65.8 nM (1.8-fold). The first is the more potent here.

First: Cc1cc(C(F)(F)F)cc(O)c1-c1ccc(NC[C@@H](F)C(C)(C)O)nn1 [Ex 60, (R)-2-(6-((2-Fluoro-3-hydroxy-3-methylbutyl)amino)pyridazin-3-yl)-3-methyl-5-(trifluoromethyl)phenol]
Second: Cc1cc(C(F)(F)F)cc(O)c1-c1ccc(NC(C)(C)CO)nn1 [Ex 79, 2-(6-((1-Hydroxy-2-methylpropan-2-yl)amino)pyridazin-3-yl)-3-methyl-5-(trifluoromethyl)phenol]
The IC50 of the first is 2.7-fold lower: 139 nM for the first, 370 nM for the second.

First: C[C@]1(O)C[C@@H](Nc2cc(C(F)(F)F)c(-c3ccc(C(F)(F)F)cc3O)nn2)C1 [Ex 66, 2-(6-(((cis)-3-Hydroxy-3-methylcyclobutyl)amino)-4-(trifluoromethyl)pyridazin-3-yl)-5-(trifluoromethyl)phenol]
Second: C[C@]1(O)C[C@@H](Nc2cc(C(F)(F)F)c(-c3ccc(Cl)cc3O)nn2)C1 [Ex 69, 5-Chloro-2-(6-(((cis)-3-hydroxy-3-methylcyclobutyl)amino)-4-(trifluoromethyl)pyridazin-3-yl)phenol]
The IC50 of the first is 2.3-fold lower: 187 nM for the first, 431 nM for the second. The first is the more potent here.

Compared with `Cc1cc(C(F)(F)F)cc(O)c1-c1ccc(N[C@H]2C[C@](O)(C(F)(F)F)C2)nn1` [Ex 67, 2-(6-(((cis)-3-Hydroxy-3-(trifluoromethyl)cyclobutyl)amino)pyridazin-3-yl)-3-methyl-5-(trifluoromethyl)phenol], `Cc1cc(C(F)(F)F)cc(O)c1-c1ccc(NC[C@](C)(O)C(F)(F)F)nn1` [Ex 78, (S)-3-Methyl-2-(6-((3,3,3-trifluoro-2-hydroxy-2-methylpropyl)amino)pyridazin-3-yl)-5-(trifluoromethyl)phenol HCl-salt] is 4.9-fold higher in IC50: 40.1 nM for the first, 198 nM for the second. The first is the more potent here.

First: Cc1cc(N[C@H]2C[C@@](C)(O)C2)nnc1-c1ccc(Cl)cc1O [Ex 68, 5-Chloro-2-(6-(((cis)-3-hydroxy-3-methylcyclobutyl)amino)-4-methylpyridazin-3-yl)phenol]
Second: Cc1cc(NCC(C)(C)O)nnc1-c1c(C)cc(C(F)(F)F)cc1O [Ex 73, 2-(6-((2-Hydroxy-2-methylpropyl)amino)-4-methylpyridazin-3-yl)-3-methyl-5-(trifluoromethyl)phenol]
The IC50 of the first is 1.7-fold lower: 89.3 nM for the first, 154 nM for the second. The first is the more potent here.

First: Cc1cc(-c2c(C)cc(C(F)(F)F)cc2O)nnc1NCC(C)(C)O [Ex 72, 2-(6-((2-Hydroxy-2-methylpropyl)amino)-5-methylpyridazin-3-yl)-3-methyl-5-(trifluoromethyl)phenol]
Second: Cc1cc(C(F)(F)F)cc(O)c1-c1ccc(NC[C@@H]2C[C@H](F)CN2)nn1 [Ex 75, 2-(6-((((2S,4S)-4-Fluoropyrrolidin-2-yl)methyl)amino)pyridazin-3-yl)-3-methyl-5-(trifluoromethyl)phenol]
The IC50 of the first is 2.5-fold higher: 44.9 nM for the first, 18.3 nM for the second.

In the case of `Cc1cc(C(F)(F)F)cc(O)c1-c1ccc(NC[C@@H]2C[C@@H](F)CN2)nn1` [Ex 76, 2-(6-((((2S,4R)-4-Fluoropyrrolidin-2-yl)methyl)amino)pyridazin-3-yl)-3-methyl-5-(trifluoromethyl)phenol], the IC50 is reported as 89.7 nM.
